Source: article PMC5198017, “The Influence of Solid Microneedles on the Transdermal Delivery of Selected Antiepileptic Drugs” (Pharmaceutics, 2016)
Structures can show the parent of a compound that is named as a salt. Where two headings read alike, the source gives them in different places.

Tests used:
[1] = In vitro diffusion studies with vertical Franz diffusion cells across untreated and microneedle-treated skin; format: in vitro ADME, pig; settings: for Statistical significance of difference in flux, untreated versus microneedle-treated skin: porcine skin, carbamazepine as 20% and 30% ethanol solutions, p < 0.05 considered significant; for Transdermal flux, Microneedle: 500 μm microneedle roller-treated porcine ear skin; for Transdermal flux, Microneedle / Transdermal flux, Passive: 12 h, ± SD, n = 6; for Transdermal flux, Passive: untreated porcine ear skin
Method: Pig ears were purchased from Pel-Freez Arkansas LLC (Rogers, AR, USA). Upon arrival, ears were shaved with an electric hair clipper. Full-thickness skins were obtained by using a scalpel to remove subcutaneous fat from ear cartilage. An electric dermatome (Nouvag®, Goldach, Switzerland) was used to prepare split-thickness skins. The thickness of the skin samples was determined with the Digimatic micrometer (Mitutoyo, Tokyo, Japan). Skin membranes were wrapped in aluminum foil and stored at -20 °C until ready for use. Experiments were approved by the Institutional Animal Care and Use Committee (IACUC) and Institutional Biosafety Committee (IBC) of Touro University, Mare Island-Vallejo, CA, USA. Microchannels were created on porcine skins using solid microneedle rollers and skin samples were then clamped to the diffusion cells. The roller was applied to the pig ear skin 15 times (five times in the vertical, horizontal and diagonal directions). The roller was applied with a force of 5 kg (measured with a weighing balance) for approximately 1 min per application. Three microneedle-treated split-thickness skin (STS) samples were used for the experiment while three untreated skin samples served as controls. […] The drug was placed on porcine skin. The pig skin was sandwiched between the donor and receptor compartments of Franz diffusion cells. The donor compartment and covered with parafilm and aluminum foil to reduce evaporation. The sampling ports were also sealed. […] Extractions were stored in 2 mL amber vials from Agilent Technologies (Agilent, Santa Clara, CA, USA) and stored at -8 °C until shipment to the University of Idaho for analysis. Receptor chambers were replenished after each extraction with 1 mL of fresh, pre-warmed PBS maintained at 37 °C. We carried out in vitro diffusion studies with six vertical Franz Diffusion cells (PermeGear, Hellertown, PA, USA). Each cell has donor compartments and receptor compartments. In each cell, there is a magnetic stirrer, sampling port, and a water jacket maintained at a 37 °C model human body temperature. The receptor compartment has a diffusion area of 1.77 cm^2 and the volume is 12 mL. The receptor compartment was filled with PBS, and we utilized high-vacuum grease (Dow Corning, Midland, MA, USA) and a metal clamp to prevent loss of the drug solution through lateral diffusion. HPLC analysis was performed using an Agilent 1200 Series HPLC system with a diode array detection (DAD) system coupled to an Agilent […] TOF-MS system equipped with an ESI source (Agilent, Santa Clara, CA, USA). […] The injection volume was 5 μL. The mobile phase comprised of 0.1% formic acid in water (solvent A) and 0.1% formic acid in methanol (solvent B). We first used a linear gradient from 15% to 95% B in 7 min, and then isocratic elution was carried out at 95% B for 2 min. The final equilibration was conducted at 15% B for 5 min. We diverted the flow from the mass spectrometer for the first 3 min of the analysis, in order to prevent MS contamination and ion suppression. The flow rate was 0.3 mL·min^-1. The average cumulative amount of drug permeation through porcine skin was plotted as a function of time. Steady-state flux was calculated from the linear portion of the average cumulative amount versus time curve. Six replicates were utilized for each drug. […] (1) […] Statistical analysis was performed using GraphPad Prism 7 (GraphPad Software, Inc., La Jolla, CA, USA). The Mann-Whitney Rank Sum test was carried out to determine statistical significance. […] The average of replicate measurements (n = 6) with corresponding standard deviation was used to plot the graphs.

[2] = cited from earlier work
[3] = cited from earlier work; remark: listed apart in the source
[4] = cited from earlier work; remark: listed apart in the source
[5] = parameters: method as in PMID 23454133; settings: after application of nanostructured lipid carriers; cited from earlier work
[6] = tiagabine hydrochloride 5 mg/mL in PBS
[7] = carbamazepine 1 mg/mL in 20% ethanol/PBS, listed as Carbamazepine in 20% ethanol
[8] = carbamazepine 1 mg/mL in 30% ethanol/PBS

SMILES | Statistical significance of difference in flux, untreated versus microneedle-treated skin [1] | Transdermal flux, Microneedle [1, 6] | Transdermal flux, Passive [1, 6] | Flux Increase ([1]; tiagabine hydrochloride in PBS, microneedle versus passive) | Partition coefficient ([2]; tiagabine hydrochloride) | Aqueous solubility ([3]; tiagabine hydrochloride) | Blood–brain barrier passage ([4]; after drug administration) | Unchanged when excreted as urine [4] | Volume of distribution [4] | Transdermal flux, Microneedle [1, 7] | Transdermal flux, Passive [1, 7] | Transdermal flux, Microneedle [1, 8] | Transdermal flux, Passive [1, 8] | Partition coefficient [2] | Aqueous solubility ([3]; at 32 °C in phosphate buffer saline of pH 7.4) | Clearance [4] | Excreted in urine unchanged [4] | Transdermal flux enhancement [5]
Cc1ccsc1C(=CCCN1CCC[C@@H](C(=O)O)C1)c1sccc1C [Tiagabine hydrochloride, tiagabine hydrochloride] | statistically significant | 86.42 ± 25.66 µg/cm^2/h | 12.83 ± 6.30 µg/cm^2/h | 6.74 fold | 2.6 | 10000 µg/mL | readily cross the blood–brain barrier | less than 1% | 1 L/kg | – | – | – | – | – | – | – | – | –
NC(=O)N1c2ccccc2C=Cc2ccccc21 [Carbamazepine, carbamazepine] | not statistically significant | – | – | – | – | – | – | – | – | 10.85 ± 0.11 µg/cm^2/h | 7.85 ± 0.60 µg/cm^2/h | 36.73 ± 1.83 µg/cm^2/h | 30.74 ± 1.32 µg/cm^2/h | 2.7 ± 0.3 | 440.6 ± 20.6 µg/mL | 1.87 ± 0.245 mL/min/kg | 1% | –
Cc1cc2c(s1)Nc1ccccc1N=C2N1CCN(C)CC1 [olanzapine] | – | – | – | – | – | – | – | – | – | – | – | – | – | – | – | – | – | did not observe significant transdermal flux enhancement
